Measured values published in US20060031949A1, “Inducible expression systems for modulating the expression of target genes in eukaryotic cells and non-human animals” (priority 2004, published 2006).

Legend:
Hif1α [1] = experiment: Hif1α protein level (western) in D54_Hif clones with or without doxycycline; assay type: cell-based, human; conditions: D54_Hif18 cells, 1 μg/ml doxycycline
Experimental: (§1) Cells were incubated in the presence or absence of 1 μg/ml doxycycline. After thirty-six hours, cells were either untreated (N) or subjected to hypoxia treatment (H) for an additional sixteen hours. The cells were lysed and analyzed by western blotting using antibodies against Hif1α (upper panel) or Hif1β (lower panel). […] Cells were transfected with either pGL3-control/pRL-TK (left panel) or 1×HRE/pRL-TK plasmids (right panel) in the presence or absence of 1 μg/ml doxycycline. Thirty-six hours following transfection, cells were subjected to hypoxia treatment. Luciferase activities were determined sixteen hours after hypoxia treatment. […] Cells were incubated in the presence or absence of 1 μg/ml doxycycline. After thirty-six hours, cells were either untreated (N) or subjected to hypoxia treatment (H) for an additional sixteen hours. Total RNA were prepared and used in quantitative PCR for analyzing the level of the indicated genes.
(§2) To assess the potential therapeutic effect of Hif1 inhibition, we established stable cell lines from D54MG parental cells that express an shRNA against Hif1α under the control of doxycycline. A panel of 8 shRNAs against Hif1α was first screened for their abilities to knockdown the target (data not shown), and the best shRNA was selected for the creation of Hif1α knockdown cell lines. […]

[2] = test system: Hif1 dependent transcriptional activity; experiment: Hif1 reporter (1×HRE) luciferase activity in D54_Hif clones; assay type: cell-based, human; conditions: D54_Hif25 cells, 1 μg/ml doxycycline, hypoxia
Experimental: as §1, §2

Hif1α [3] = experiment: Hif1α knockdown in subcutaneous xenograft tumors (QPCR, IHC), doxycycline in drinking water; assay type: in vivo, SCID mice; conditions: D54_Hif25 tumors, 1 mg/ml doxycycline in drinking water for 3 days
Experimental: Mice bearing 200-300 mm^3 tumors were supplied with doxycycline (1 mg/ml) for 3, 6, 9 or 12 days. Tumors were collected at the end of treatment and Hif1α mRNA levels were determined by QPCR. Tumors from mice without Dox treatment were used as controls. […] Hif1α mRNA level was determined by QPCR. […] The Hif1α expression level was examined by IHC, and quantified using AxioVision 4 (Zeiss).
To determine whether target knockdown can be induced in xenograft tumors, the D54_Hif25 cells were injected subcutaneously into SCID mice. After tumors reached an average size of 200 mm^3, the mice were supplied with drinking water containing 1 mg/ml doxycycline to induce the expression of Hif1α shRNA. After treating the mice with doxycycline for 3, 6, 9, or 12 days, the tumors were collected and analyzed by QPCR to determine the Hif1α messenger level. […] Examination of the tumor samples by immunohistochemistry indicated a clear reduction of the Hif1α protein from day 3 onward (data not shown).
To determine whether the ability to induce target knockdown would be impaired over long-term doxycycline treatment or when the tumors reach a very large size, further analysis was performed of the knockdown of Hif1α in tumors from mice treated with doxycycline for 45 days. The average tumor size at the end of treatment was 2000 mm^3. […]

human Hif1α = experiment: Western analysis of Hif1α protein in HeLaTREx stable clones carrying 2O2_Hif1, doxycycline induction; assay type: cell-based
Experimental: Cells were directly lysed on 6-well plates in 1× Laemmli sample buffer. Proteins were separated by SDS-PAGE, transferred to PVDF membrane, and western blotting was performed using antibodies against Chk1 (1:200, Santa Crutz Biotechnology, Santa Crutz, Calif. 95060), HIF-1 alpha (1:500, BD Bioscience, Palo Alto, Calif. 94303) or tetR (1:2000, Mo Bi Tec, Germany).
To determine whether the 2O2 promoter retains the ability to respond to doxycycline after integrating into chromosomes, the inventors used a commercial tetR expressing cell line, HeLaTREx, (Invitrogen Corp., Carlsbad, Calif. 92008) to establish stable clones that carried the 2O2 promoter linked to an shRNA targeting human Hif1α (2O2_Hif1).
Using the best-regulated 2O2_Hif1 clone (Hif1-7), the inventors further characterized the time and dose dependency of doxycycline induction of the 2O2 expression system. […] The doxycycline concentration that is required for maximal induction of the 2O2 system was determined in a dose-response experiment.

tyrosinase = experiment: Tyrosinase knockdown mice by pronuclear injection of 2O2 promoter transgenes; assay type: in vivo; conditions: mice without tetR expression
Experimental: Pronuclear injection is a well-established method for creating transgenic animals. In this approach, a DNA fragment (the transgene) is injected into the pronuclear stage of fertilized eggs, and the injected eggs are implanted into pseudopregnant animals. In a typical experiment, 50-80 eggs are injected in which half of the injected eggs will survive to generate neonates and 5%-20% of the neonates will contain the transgene.
Tyrosinase was selected as a target to knockdown. Tyrosinase is a key enzyme in melanin production, and the knockdown of tyrosinase in mice will generate an apparent coat color change.
To determine whether a modified pol III dependent promoter, such as the 2O2 promoter, is suitable for the creation of knockdown animals, transgenes were created that used the 2O2 promoters to express the two best shRNAs against tyrosinase (2O2-Tyr731 (SEQ ID NO: 46) and 2O2-Tyr338 (SEQ ID NO: 47)). These transgenes are shown below. The bold characters represent the shRNA sequences and the underscored characters represent the promoter sequences. […] In mice without tetR expression, the 2O2 promoter is expected to be constitutively active.

**Q.** What does the source list for `C[C@H]1c2cccc(O)c2C(=O)C2=C(O)[C@]3(O)C(=O)C(C(N)=O)=C(O)[C@@H](N(C)C)[C@@H]3[C@@H](O)[C@@H]21` [doxycycline]?
**A.** reduction of the Hif1α protein (Hif1α [1]): 80%; reduction of the Hif1 reporter activity [2]: 80%; reduction of the Hif1α mRNA in tumors (Hif1α [3]): 80%; inhibition of Hif-1 protein (human Hif1α; clone Hif1-7, 0.1 ng/ml of doxycycline): more than 90%; inhibition of Hif-1 protein (human Hif1α; clone Hif1-7, 24 hours after doxycycline treatment): more than 90%; doxycycline concentration at which maximal inhibition of Hif1α protein was reached (human Hif1α; clone Hif1-7, dose-response experiment): 10 ng/mL

B1: 2O2-Tyr338: transgene using the 2O2 promoter to express an shRNA against tyrosinase (SEQ ID NO: 47) (nucleic acid)
DNA: GAATTCCAGGCAAAACGCACCACGTGACGGAGCGTGACCGCGCGCCGAGCGCGCGCCAAGGTCGGGCAGGAAGAGGGCCTATTTCCCATGATTCCATCATATTTGCATATACGATACAAGGCTGTTAGAGAGATAATTAGAATTAATTCGACTGTAAACACAAAGATATTAGTATAAAATACGTGACGTAGAAAGTAATAATTTCTTGGGTAGTTTGCAGTTTTAAAATTATGTTTTAAAATGGACTATCATATGCTTACCGTAACTTGAAACTCCCTATCAGTGATAGAGATTATATATCTCCCTATCAGTGATAGAGACCGGCAACTTCATGGGTTTCATTCAAGAGATGAAACCCATGAAGTTGCCTTTTTTAAGCTT
modifications: 2O2 promoter transgene; 2O2-Tyr338
**Q.** B1 was tested. Which “viability of transgene-positive embryos” value (tyrosinase; 40 pups without transgene, two dead embryos with it) did it give?
**A.** embryonic lethality

B2: 2O2-Tyr731: transgene using the 2O2 promoter to express an shRNA against tyrosinase (SEQ ID NO: 46) (nucleic acid)
DNA: GAATTCCAGGCAAAACGCACCACGTGACGGAGCGTGACCGCGCGCCGAGCGCGCGCCAAGGTCGGGCAGGAAGAGGGCCTATTTCCCATGATTCCATCATATTTGCATATACGATACAAGGCTGTTAGAGAGATAATTAGAATTAATTCGACTGTAAACACAAAGATATTAGTATAAAATACGTGACGTAGAAAGTAATAATTTCTTGGGTAGTTTGCAGTTTTAAAATTATGTTTTAAAATGGACTATCATATGCTTACCGTAACTTGAAACTCCCTATCAGTGATAGAGATTATATATCTCCCTATCAGTGATAGAGACCGTGACATTTGCACAGATGATTCAAGAGATCATCTGTGCAAATGTCACTTTTTTAAGCTT
modifications: 2O2-Tyr731
**Q.** B2 was tested. Which “coat color of transgene-positive pups” value (tyrosinase; three of 20 pups carried the transgene) did it give?
**A.** different degrees of coat color change
